{
  "source": "patent US20240058283A1",
  "about": "“THE MODE OF ACTION OF N-MeDCPA ON TRPC CHANNELS” (West Virginia University Board of Governors on Behalf of …, priority 2022, published 2024)",
  "type_in_all_cases": "cell-based",
  "key": {"Jurkat cells": {"tested_on": "Jurkat cells", "design": "dose or concentration left out as unconfirmed", "settings": "human", "procedure": "ELP-004 (N-MeDCPA) was specifically developed to preclude metabolizing to two toxic metabolites, N—OH-dichloroaniline and 6-OH-dichloroaniline. In vitro assays for toxicity caused by ELP-004 using Jurkat cells show 50% toxicity at […] and <2% toxicity at […]. […] Thus, ELP-004 has high potential for use as a drug to prevent or reduce bone erosion."}, "Mouse splenic monocytes": {"tested_on": "Mouse splenic monocytes", "assay": "Osteoclast differentiation of mouse splenic monocytes", "settings": "21 days of culture with RANKL+m-CSF; 100 nM ELP-004", "procedure": "ELP-004 blocks TNF-α-induced osteoclast differentiation. Mouse splenic monocytes were induced to differentiate into osteoclasts. Results were obtained of osteoclast cells after 21 days of culture with RANKL+m-CSF alone or with the addition of 100 nM ELP-004. […] Thus, ELP-004 inhibits osteoclastogenesis."}, "TRPC6": {"biological_target": "T1, TRPC6 (Homo sapiens, UniProt Q9Y210)", "T1 construct": "expressed in transfected cells", "T1 sequence (Q9Y210 1-931)": "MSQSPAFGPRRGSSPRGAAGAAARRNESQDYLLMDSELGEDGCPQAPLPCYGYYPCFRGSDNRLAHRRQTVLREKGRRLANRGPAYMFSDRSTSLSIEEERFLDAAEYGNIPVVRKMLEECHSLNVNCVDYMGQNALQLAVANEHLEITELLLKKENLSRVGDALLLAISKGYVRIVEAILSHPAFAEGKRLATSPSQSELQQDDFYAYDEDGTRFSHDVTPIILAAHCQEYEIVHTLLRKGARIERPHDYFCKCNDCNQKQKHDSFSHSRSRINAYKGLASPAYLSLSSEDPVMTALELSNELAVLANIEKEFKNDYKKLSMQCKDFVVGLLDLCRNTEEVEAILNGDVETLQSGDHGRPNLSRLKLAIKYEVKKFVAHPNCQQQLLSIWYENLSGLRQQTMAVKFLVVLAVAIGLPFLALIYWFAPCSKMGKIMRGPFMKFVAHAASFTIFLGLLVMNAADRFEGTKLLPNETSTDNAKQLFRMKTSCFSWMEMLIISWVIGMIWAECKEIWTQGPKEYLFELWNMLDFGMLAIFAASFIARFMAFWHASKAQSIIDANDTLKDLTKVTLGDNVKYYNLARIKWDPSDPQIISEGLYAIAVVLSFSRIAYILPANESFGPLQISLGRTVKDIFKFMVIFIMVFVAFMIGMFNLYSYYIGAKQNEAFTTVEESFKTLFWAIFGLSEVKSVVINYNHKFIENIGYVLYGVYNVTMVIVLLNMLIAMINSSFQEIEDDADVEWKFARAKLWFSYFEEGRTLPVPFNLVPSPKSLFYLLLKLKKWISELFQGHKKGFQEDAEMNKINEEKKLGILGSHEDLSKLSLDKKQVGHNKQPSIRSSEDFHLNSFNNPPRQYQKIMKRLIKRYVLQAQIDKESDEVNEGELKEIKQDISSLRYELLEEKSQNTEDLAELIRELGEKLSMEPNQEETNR", "assay": "OAG-induced Ca2+ entry in Fura2-loaded HEK293 cells expressing TRPC6", "settings": "ELP-004 0 to 1 mM for 10 minutes before OAG, FIG. 1D, read-out: IC50, inhibition of OAG-induced Ca2+ entry", "procedure": "Inhibition of DAG-mediated TRPC activation. To determine if ELP-004 (N-MeDCPA) inhibits DAG-induced TRPC activation, HEK293 cells expressing TRPC3, TRPC6 or TRPC7 were loaded with Fura2 and incubated with ELP-004 (0 to 1 mM) for 10 minutes prior to challenging with 1-Oleoyl-2-acetyl-sn-glycerol (OAG), a membrane permeable form of diacylglycerol.\nCell Culture—HEK293 cells were grown in DMEM with 4.5 g/L glucose supplemented with 10% FBS and 1% Gentamycin (Full DMEM media; Thermo-Fisher Scientific, Waltham, MA) at 37° C. and 5% CO2. […]\nTRPC activity assay—Cells grown on glass coverslips were incubated in a cation-safe buffer (107 mM NaCl, 7.2 mM KCl, 1.2 mM MgCl2, 11.5 mM Glucose, 20 mM HEPES-NaOH, 1 mM CaCl2), pH 7.2) and loaded with Fura2-acetoxymethylester (Fura2-AM; 2 μM) for 30 min at 24° C. as previously described^10,11. […] Ca^2+/Sr^2+ measurements were taken using a Leica DMI 6000B fluorescence microscope controlled by Slidebook software (Intelligent Imaging Innovations, Denver, CO). Fluorescence emission at 505 nm was monitored in response to excitation at alternating 340 nm and 380 nm wavelengths at a frequency of 0.67 Hz; intracellular Ca^2+ measurements are shown at 340/380 nm ratios obtained from groups of 35-45 single cells."}},
  "note": "Like-named read-outs stand apart in the source and are kept apart here.",
  "data": [
    {"smiles": "CCC(=O)N(C)c1ccc(Cl)c(Cl)c1", "note": "[ELP-004, N-(3,4-dichlorophenyl)-N-methylpropanamide]", "values": [
      {"measurement": "toxicity", "setting": "Jurkat cells; 200", "result": "< 2", "unit": "%"},
      {"measurement": "toxicity", "setting": "Jurkat cells; 800", "result": 50, "unit": "%"},
      {"measurement": "development of multinucleated osteoclasts", "setting": "Mouse splenic monocytes", "result": "inhibited development of multinucleated osteoclasts"},
      {"measurement": "IC50", "setting": "TRPC6", "result": "1000 to 2000", "unit": "nM"}
    ]}
  ]
}
